Source: ChEMBL document CHEMBL1201862, “PubChem BioAssay data set” (2004)
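These data come from cells grown in 96-well plates and exposed to compound for 48 hours at five concentrations. The concentration for 50% growth inhibition is given as GI50.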 The source made the active and inactive calls. Cut-off read from the data, not from the text of the source: active = GI50 up to about 1.1 µM and inactive = higher.

Experiments:
Test in all cases: NCI anticancer screen, dose series, 48 h
786-0 = tested on: 786-0
A498 = tested on: A498
A549 = tested on: A549
ACHN = tested on: ACHN
BT-549 = tested on: BT-549
CAKI-1 = tested on: CAKI-1
CCRF-CEM = tested on: CCRF-CEM
COLO 205 = tested on: COLO 205
DU-145 = tested on: DU-145
EKVX = tested on: EKVX
HCC 2998 = tested on: HCC 2998
HCT-116 = tested on: HCT-116
HCT-15 = tested on: HCT-15
HL-60 = tested on: HL-60
HOP-62 = tested on: HOP-62
HOP-92 = tested on: HOP-92
HT-29 = tested on: HT-29
Hs-578T = tested on: Hs-578T
IGROV-1 = tested on: IGROV-1
K562 = tested on: K562
KM12 = tested on: KM12
LOX IMVI = tested on: LOX IMVI
M14 = tested on: M14
MCF7 = tested on: MCF7
MDA-MB-231 = tested on: MDA-MB-231
MDA-MB-435 = tested on: MDA-MB-435
MOLT-4 = tested on: MOLT-4
Malme-3M = tested on: Malme-3M
NCI-H226 = tested on: NCI-H226
NCI-H23 = tested on: NCI-H23
NCI-H460 = tested on: NCI-H460
NCI-H522 = tested on: NCI-H522
NCI/ADR-RES = tested on: NCI/ADR-RES
OVCAR-3 = tested on: OVCAR-3
OVCAR-4 = tested on: OVCAR-4
OVCAR-5 = tested on: OVCAR-5
OVCAR-8 = tested on: OVCAR-8
PC-3 = tested on: PC-3
RPMI-8226 = tested on: RPMI-8226
RXF 393 = tested on: RXF 393
SF-268 = tested on: SF-268
SF-295 = tested on: SF-295
SF-539 = tested on: SF-539
SK-MEL-28 = tested on: SK-MEL-28
SK-MEL-2 = tested on: SK-MEL-2
SK-MEL-5 = tested on: SK-MEL-5
SK-OV-3 = tested on: SK-OV-3
SN12C = tested on: SN12C
SNB-19 = tested on: SNB-19
SW-620 = tested on: SW-620
T47D = tested on: T47D
TK-10 = tested on: TK-10
U-251 = tested on: U-251
UACC-257 = tested on: UACC-257
UACC-62 = tested on: UACC-62
UO-31 = tested on: UO-31

Q: Which results are given for `Cc1cc(OCc2nnc3sc(NC(=O)c4ccccc4)nn23)ccc1Cl`?
A: GI50 (786-0): 33.1 µM (inactive); GI50 (A498): 27.2 µM (inactive); GI50 (A549): 33.1 µM (inactive); GI50 (ACHN): 20.5 µM (inactive); GI50 (BT-549): 41.7 µM (inactive); GI50 (CAKI-1): 18 µM (inactive); GI50 (CCRF-CEM): 43.3 µM (inactive); GI50 (COLO 205): 53.5 µM (inactive); GI50 (DU-145): 24.4 µM (inactive); GI50 (EKVX): 31.1 µM (inactive); GI50 (HCC 2998): 26.7 µM (inactive); GI50 (HCT-116): 28.7 µM (inactive); GI50 (HCT-15): 38.7 µM; GI50 (HL-60): 34.6 µM (inactive); GI50 (HOP-62): 20.1 µM (inactive); GI50 (HOP-92): 17.4 µM (inactive); GI50 (HT-29): 38.4 µM (inactive); GI50 (Hs-578T): 32.1 µM (inactive); GI50 (IGROV-1): 25.4 µM (inactive); GI50 (K562): 94.2 µM (inactive); GI50 (KM12): 21.5 µM (inactive); GI50 (LOX IMVI): 30.1 µM (inactive); GI50 (M14): 27.4 µM (inactive); GI50 (MCF7): 30.3 µM (inactive); GI50 (MDA-MB-231): 42.4 µM (inactive); GI50 (MDA-MB-435): 22 µM (inactive); GI50 (MOLT-4): 55.5 µM (inactive); GI50 (Malme-3M): 21.4 µM (inactive); GI50 (NCI-H226): > 100 µM (inactive); GI50 (NCI-H23): 30.7 µM (inactive); GI50 (NCI-H460): 39.1 µM (inactive); GI50 (NCI-H522): 30.6 µM (inactive); GI50 (NCI/ADR-RES): 37 µM (inactive); GI50 (OVCAR-3): 30.7 µM (inactive); GI50 (OVCAR-4): > 100 µM (inactive); GI50 (OVCAR-5): 56.8 µM (inactive); GI50 (OVCAR-8): 20.7 µM (inactive); GI50 (PC-3): 33.7 µM (inactive); GI50 (RPMI-8226): 26.7 µM (inactive); GI50 (RXF 393): 30.6 µM (inactive); GI50 (SF-268): 45 µM (inactive); GI50 (SF-295): 36.6 µM (inactive); GI50 (SF-539): > 100 µM (inactive); GI50 (SK-MEL-28): 67.5 µM (inactive); GI50 (SK-MEL-2): 28.8 µM (inactive); GI50 (SK-MEL-5): 32.4 µM (inactive); GI50 (SK-OV-3): 59.6 µM (inactive); GI50 (SN12C): 30.8 µM (inactive); GI50 (SNB-19): 33.9 µM (inactive); GI50 (SW-620): > 100 µM (inactive); GI50 (T47D): 44.4 µM (inactive); GI50 (TK-10): 62.4 µM (inactive); GI50 (U-251): 33.3 µM (inactive); GI50 (UACC-257): 37.7 µM (inactive); GI50 (UACC-62): 33.3 µM (inactive); GI50 (UO-31): 19 µM (inactive)
